Tests used:
[1] = in vivo; cited from earlier work

melting point	SMILES	spatial learning in the Morris watermaze [1]
	COC(=O)c1cc2c(cn1)[nH]c1ccccc12 [β-CCM]	enhanced spatial learning
247 °C (dec.)	Cc1cc(-c2nnn3c2nc(N2CCN(c4cccnc4)C(=O)C2)c2ccccc23)no1	
263 °C (dec.)	Cc1cc(-c2nnn3c2nc(N2CCN(c4ccccc4)C(=O)C2)c2ccccc23)no1	
266 °C (dec.)	Cc1cc(-c2nnn3c2nc(N2CCN(c4ccccn4)C(=O)C2)c2ccccc23)no1	

Reference: US7144887B2, “Substituted 1,2,3-triazolo[1,5-a]quinazolines for enhancing cognition” (Merck Sharp & Dohme Ltd., priority 1999, dated 2006)
